PubChem BioAssay (NCI)
Several values for one entry are separate records, joined by “and”; a condition that tells them apart may be missing. Equal values may be shown once.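 Where inhibition never reached the appropriate level, the endpoint shown equals the highest concentration tested. Otherwise, values were interpolated linearly from a five-concentration, 48-hour dose response in 96-well plates. The concentration for 50% growth inhibition is given as GI50. The concentration for full growth arrest is given as TGI.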

What was measured:
Assay in all cases: NCI tumour cell line growth inhibition, 48 h
786-0 renal = test system: 786-0 renal
A498 renal = test system: A498 renal
A549 NSCLC = test system: A549 NSCLC
ACHN renal = test system: ACHN renal
BT-549 breast = test system: BT-549 breast
CAKI-1 renal = test system: CAKI-1 renal
CCRF-CEM leukemia = test system: CCRF-CEM leukemia
COLO 205 colon = test system: COLO 205 colon
DLD-1 colon = test system: DLD-1 colon
DMS 114 small cell lung = test system: DMS 114 small cell lung
DMS 273 small cell lung = test system: DMS 273 small cell lung
DU-145 prostate = test system: DU-145 prostate
EKVX NSCLC = test system: EKVX NSCLC
HCC-2998 colon = test system: HCC-2998 colon
HCT-116 colon = test system: HCT-116 colon
HCT-15 colon = test system: HCT-15 colon
HL-60(TB) leukemia = test system: HL-60(TB) leukemia
HOP-18 NSCLC = test system: HOP-18 NSCLC
HOP-62 NSCLC = test system: HOP-62 NSCLC
HOP-92 NSCLC = test system: HOP-92 NSCLC
HS 578T breast = test system: HS 578T breast
HT29 colon = test system: HT29 colon
IGROV1 ovarian = test system: IGROV1 ovarian
K-562 leukemia = test system: K-562 leukemia
KM12 colon = test system: KM12 colon
KM20L2 colon = test system: KM20L2 colon
LOX IMVI melanoma = test system: LOX IMVI melanoma
M14 melanoma = test system: M14 melanoma
M19-MEL melanoma = test system: M19-MEL melanoma
MALME-3M melanoma = test system: MALME-3M melanoma
MCF7 breast = test system: MCF7 breast
MDA-MB-231 breast = test system: MDA-MB-231 breast
MDA-MB-435 = test system: MDA-MB-435
MDA-N = test system: MDA-N
MOLT-4 leukemia = test system: MOLT-4 leukemia
NCI-H226 lung = test system: NCI-H226 lung
NCI-H23 lung = test system: NCI-H23 lung
NCI-H460 lung = test system: NCI-H460 lung
NCI-H522 lung = test system: NCI-H522 lung
NCI/ADR-RES ovarian = test system: NCI/ADR-RES ovarian
OVCAR-3 ovarian = test system: OVCAR-3 ovarian
OVCAR-4 ovarian = test system: OVCAR-4 ovarian
OVCAR-5 ovarian = test system: OVCAR-5 ovarian
OVCAR-8 ovarian = test system: OVCAR-8 ovarian
P388 leukemia = test system: P388 leukemia
P388/ADR leukemia = test system: P388/ADR leukemia
PC-3 prostate = test system: PC-3 prostate
RPMI-8226 leukemia = test system: RPMI-8226 leukemia
RXF 393 renal = test system: RXF 393 renal
SF-268 CNS = test system: SF-268 CNS
SF-295 CNS = test system: SF-295 CNS
SF-539 CNS = test system: SF-539 CNS
SK-MEL-2 melanoma = test system: SK-MEL-2 melanoma
SK-MEL-28 melanoma = test system: SK-MEL-28 melanoma
SK-MEL-5 melanoma = test system: SK-MEL-5 melanoma
SK-OV-3 ovarian = test system: SK-OV-3 ovarian
SN12C renal = test system: SN12C renal
SN12K1 renal = test system: SN12K1 renal
SNB-19 CNS = test system: SNB-19 CNS
SNB-75 CNS = test system: SNB-75 CNS
SNB-78 CNS = test system: SNB-78 CNS
SR leukemia = test system: SR leukemia
SW-620 colon = test system: SW-620 colon
T-47D breast = test system: T-47D breast
TK-10 renal = test system: TK-10 renal
U251 CNS = test system: U251 CNS
UACC-257 melanoma = test system: UACC-257 melanoma
UACC-62 melanoma = test system: UACC-62 melanoma
UO-31 renal = test system: UO-31 renal
XF 498 CNS = test system: XF 498 CNS
LXFL 529 NSCLC = test system: LXFL 529 NSCLC
RXF-631 renal = test system: RXF-631 renal

CC1=CCCC2C1(C)CCC(C)C2(C)Cc1cc(O)ccc1O (stereo not given)
TGI (786-0 renal): 20.3 µM
TGI (A498 renal): 32.9 µM and 30.3 µM
GI50 (A549 NSCLC): 7.14 µM
TGI (A549 NSCLC): 20.5 µM and 21.6 µM
TGI (ACHN renal): 25.6 µM
TGI (BT-549 breast): 16.2 µM
GI50 (CAKI-1 renal): 14.1 µM
TGI (CAKI-1 renal): 27.2 µM and 22.5 µM
GI50 (CCRF-CEM leukemia): 3.76 µM
TGI (CCRF-CEM leukemia): > 37.1 µM and 5.88 µM
TGI (COLO 205 colon): 34.9 µM and 32.1 µM
TGI (DLD-1 colon): 22.2 µM
TGI (DMS 114 small cell lung): 13.3 µM
TGI (DMS 273 small cell lung): 20.2 µM
TGI (DU-145 prostate): 30.4 µM
GI50 (EKVX NSCLC): 7.71 µM
TGI (EKVX NSCLC): 22 µM and 18.8 µM
GI50 (HCC-2998 colon): 15.6 µM
TGI (HCC-2998 colon): 30 µM and 24.6 µM
GI50 (HCT-116 colon): 9.85 µM
TGI (HCT-116 colon): 24.8 µM and 15.7 µM
GI50 (HCT-15 colon): 6.04 µM
TGI (HCT-15 colon): 25.8 µM and 23.7 µM
GI50 (HL-60(TB) leukemia): 2.67 µM
TGI (HL-60(TB) leukemia): 15.2 µM and 4.61 µM
TGI (HOP-18 NSCLC): 36.2 µM
GI50 (HOP-62 NSCLC): 15.2 µM
TGI (HOP-62 NSCLC): 28.9 µM and 35.7 µM
TGI (HOP-92 NSCLC): 22.6 µM and 15.2 µM
TGI (HS 578T breast): 17.9 µM
GI50 (HT29 colon): 14.2 µM
TGI (HT29 colon): 29.6 µM and 37.1 µM
GI50 (IGROV1 ovarian): 4.22 µM
TGI (IGROV1 ovarian): 16.6 µM and 21.6 µM
GI50 (K-562 leukemia): 5.44 µM
TGI (K-562 leukemia): 40.8 µM and 19.9 µM
GI50 (KM12 colon): 5.16 µM
TGI (KM12 colon): 18.7 µM
TGI (KM20L2 colon): 27.9 µM
GI50 (LOX IMVI melanoma): 3.6 µM
TGI (LOX IMVI melanoma): 16.2 µM and 16.3 µM
TGI (M14 melanoma): 29.5 µM
TGI (M19-MEL melanoma): 20.8 µM
GI50 (MALME-3M melanoma): 14.7 µM
TGI (MALME-3M melanoma): 29.2 µM and 35.7 µM
GI50 (MCF7 breast): 7.15 µM
TGI (MCF7 breast): 21.7 µM and 19.8 µM
TGI (MDA-MB-231 breast): 21.5 µM
TGI (MDA-MB-435): 27 µM
TGI (MDA-N): 25.3 µM
TGI (MOLT-4 leukemia): 21 µM and 8.36 µM
GI50 (NCI-H226 lung): 5.5 µM
TGI (NCI-H226 lung): 27.2 µM and 15.8 µM
GI50 (NCI-H23 lung): 7.38 µM
TGI (NCI-H23 lung): 20.4 µM and 17.5 µM
GI50 (NCI-H460 lung): 7.19 µM
TGI (NCI-H460 lung): 28.9 µM and 20.5 µM
GI50 (NCI-H522 lung): 3.65 µM
TGI (NCI-H522 lung): 12.7 µM and 8.37 µM
TGI (NCI/ADR-RES ovarian): 18.2 µM and 18.9 µM
GI50 (OVCAR-3 ovarian): 9.97 µM
TGI (OVCAR-3 ovarian): 22.2 µM and 19.3 µM
GI50 (OVCAR-4 ovarian): 3.58 µM
TGI (OVCAR-4 ovarian): 24.8 µM and 10.8 µM
TGI (OVCAR-5 ovarian): 28.7 µM and 38.9 µM
TGI (OVCAR-8 ovarian): 16.7 µM and 17.7 µM
TGI (P388 leukemia): 4.94 µM
TGI (P388/ADR leukemia): 13 µM
TGI (PC-3 prostate): 18.1 µM
TGI (RPMI-8226 leukemia): 9.97 µM and 8.53 µM
GI50 (RXF 393 renal): 3.74 µM
TGI (RXF 393 renal): 20.4 µM and 10.9 µM
GI50 (SF-268 CNS): 5.4 µM
TGI (SF-268 CNS): 21.1 µM and 20.7 µM
GI50 (SF-295 CNS): 10.4 µM
TGI (SF-295 CNS): 23.5 µM and 21 µM
GI50 (SF-539 CNS): 11.1 µM
TGI (SF-539 CNS): 26.3 µM and 23.6 µM
TGI (SK-MEL-2 melanoma): 27.9 µM and 24 µM
TGI (SK-MEL-28 melanoma): 29.9 µM and 31.1 µM
GI50 (SK-MEL-5 melanoma): 10.6 µM
TGI (SK-MEL-5 melanoma): 27.7 µM and 24.9 µM
TGI (SK-OV-3 ovarian): 29.9 µM and 39.1 µM
GI50 (SN12C renal): 13.1 µM
TGI (SN12C renal): 29.3 µM and 23.8 µM
TGI (SN12K1 renal): 13.5 µM
GI50 (SNB-19 CNS): 11.5 µM
TGI (SNB-19 CNS): 27.3 µM and 18.5 µM
TGI (SNB-75 CNS): 20.5 µM and 21.7 µM
TGI (SNB-78 CNS): 11 µM
TGI (SR leukemia): 24.7 µM
GI50 (SW-620 colon): 12.9 µM
TGI (SW-620 colon): 33.3 µM and 23.3 µM
TGI (T-47D breast): 27.3 µM
TGI (TK-10 renal): 25.5 µM
TGI (U251 CNS): 15.4 µM and 16.5 µM
GI50 (UACC-257 melanoma): 9.99 µM
TGI (UACC-257 melanoma): 29.1 µM and 26.4 µM
GI50 (UACC-62 melanoma): 13 µM
TGI (UACC-62 melanoma): 28.7 µM and 24.5 µM
TGI (UO-31 renal): 19.1 µM and 15.4 µM
TGI (XF 498 CNS): 21.7 µM

COc1cc2c(cc1OC)CC(=O)Nc1cc(OC)c(OC)cc1CC2
TGI (786-0 renal): > 100 µM
TGI (A498 renal): > 100 µM
TGI (A549 NSCLC): > 100 µM
TGI (ACHN renal): > 100 µM
TGI (CAKI-1 renal): > 100 µM
TGI (CCRF-CEM leukemia): > 100 µM
TGI (COLO 205 colon): > 100 µM
TGI (DLD-1 colon): > 100 µM
TGI (DMS 114 small cell lung): 91.9 µM
TGI (DMS 273 small cell lung): > 100 µM
TGI (EKVX NSCLC): > 100 µM
TGI (HCC-2998 colon): > 100 µM
TGI (HCT-116 colon): > 100 µM
TGI (HCT-15 colon): > 100 µM
TGI (HL-60(TB) leukemia): 64.3 µM
TGI (HOP-18 NSCLC): > 100 µM
TGI (HOP-62 NSCLC): > 100 µM
TGI (HOP-92 NSCLC): > 100 µM
TGI (HT29 colon): > 100 µM
TGI (IGROV1 ovarian): > 100 µM
TGI (K-562 leukemia): > 100 µM
TGI (KM12 colon): > 100 µM
TGI (KM20L2 colon): > 100 µM
TGI (LOX IMVI melanoma): > 100 µM
TGI (LXFL 529 NSCLC): > 100 µM
TGI (M14 melanoma): > 100 µM
TGI (M19-MEL melanoma): > 100 µM
TGI (MALME-3M melanoma): 99 µM
TGI (MOLT-4 leukemia): > 100 µM
TGI (NCI-H226 lung): > 100 µM
TGI (NCI-H23 lung): > 100 µM
TGI (NCI-H460 lung): > 100 µM
TGI (NCI-H522 lung): 47.5 µM
TGI (OVCAR-3 ovarian): > 100 µM
TGI (OVCAR-4 ovarian): > 100 µM
TGI (OVCAR-5 ovarian): > 100 µM
TGI (OVCAR-8 ovarian): > 100 µM
TGI (RPMI-8226 leukemia): > 20 µM
TGI (RXF-631 renal): > 100 µM
TGI (SF-268 CNS): > 100 µM
TGI (SF-295 CNS): > 100 µM
TGI (SF-539 CNS): 97.2 µM
TGI (SK-MEL-2 melanoma): > 100 µM
TGI (SK-MEL-28 melanoma): > 100 µM
TGI (SK-MEL-5 melanoma): 71 µM
TGI (SK-OV-3 ovarian): > 100 µM
TGI (SN12C renal): > 100 µM
TGI (SNB-19 CNS): > 100 µM
TGI (SNB-75 CNS): > 100 µM
TGI (SNB-78 CNS): > 100 µM
TGI (SR leukemia): > 43.7 µM
TGI (SW-620 colon): > 100 µM
TGI (TK-10 renal): > 100 µM
TGI (U251 CNS): > 100 µM
TGI (UACC-257 melanoma): > 100 µM
TGI (UACC-62 melanoma): > 100 µM
TGI (UO-31 renal): > 100 µM
TGI (XF 498 CNS): > 100 µM
